From patent US10125138B2, “Triazolotriazinone derivatives having activity a s herbicides” (Syngenta Participations AG, priority 2015, dated 2018)

Tests used:
Type in all cases: in vivo
[1] = system: Ipomoea hederacea (IPOHE); assay: Post-emergence glasshouse herbicide test, Ipomoea hederacea; conditions: evaluated after 13 days, five point scale
Experimental: (§1) Seeds of a variety of test species are sown in standard soil in pots (Lolium perenne (LOLPE), Solanum nigrum (SOLNI), Amaranthus retoflexus (AMARE), Setaria faberi (SETFA), Echinochloa crus-galli (ECHCG), Ipomoea hederacea (IPOHE)). After cultivation for one day (pre-emergence) or after 8 days cultivation (post-emergence) under controlled conditions in a glasshouse (at 24/16° C., day/night; 14 hours light; 65% humidity), the plants are sprayed with an aqueous spray solution derived from the formulation of the technical active ingredient in acetone/water (50:50) solution containing 0.5% Tween 20 (polyoxyethelyene sorbitan monolaurate, CAS RN 9005-64-5). […] The test plants are then grown in a glasshouse under controlled conditions in a glasshouse (at 24/16° C., day/night; 14 hours light; 65% humidity) and watered twice daily. After 13 days for pre and post-emergence, the test is evaluated for the percentage damage caused to the plant. The biological activities are shown in the following table on a five point scale (5=80-100%; 4=60-79%; 3=40-59%; 2=20-39%; 1=0-19%).

[2] = system: Echinochloa crus-galli (ECHCG); assay: Post-emergence glasshouse herbicide test, Echinochloa crus-galli; conditions: evaluated after 13 days, five point scale
Experimental: as §1

[3] = system: Amaranthus retoflexus (AMARE); assay: Pre-emergence glasshouse herbicide test, Amaranthus retoflexus; conditions: evaluated after 13 days, five point scale
Experimental: as §1

[4] = system: Amaranthus retoflexus (AMARE); assay: Post-emergence glasshouse herbicide test, Amaranthus retoflexus; conditions: evaluated after 13 days, five point scale
Experimental: as §1

[5] = system: Echinochloa crus-galli (ECHCG); assay: Pre-emergence glasshouse herbicide test, Echinochloa crus-galli; conditions: evaluated after 13 days, five point scale
Experimental: as §1

[6] = system: Ipomoea hederacea (IPOHE); assay: Pre-emergence glasshouse herbicide test, Ipomoea hederacea; conditions: evaluated after 13 days, five point scale
Experimental: as §1

Setaria faberi (SETFA) [7] = assay: Post-emergence glasshouse herbicide test, Setaria faberi; conditions: evaluated after 13 days, five point scale
Experimental: as §1

Setaria faberi (SETFA) [8] = assay: Pre-emergence glasshouse herbicide test, Setaria faberi; conditions: evaluated after 13 days, five point scale
Experimental: as §1

Lolium perenne (LOLPE) [9] = assay: Pre-emergence glasshouse herbicide test, Lolium perenne; conditions: applied at 250 g/ha, evaluated after 13 days, five point scale
Experimental: as §1

Lolium perenne (LOLPE) [10] = assay: Post-emergence glasshouse herbicide test, Lolium perenne; conditions: applied at 250 g/ha, evaluated after 13 days, five point scale
Experimental: as §1

Row | Compound | percentage damage caused to the plant, POST Application IPOHE ([1]; 1000 g/h) | percentage damage caused to the plant, POST Application ECHCG ([2]; 1000 g/h) | percentage damage caused to the plant, PRE Application AMARE ([3]; 1000 g/h) | percentage damage caused to the plant, POST Application AMARE ([4]; 1000 g/h) | percentage damage caused to the plant, PRE Application ECHCG ([5]; 1000 g/h) | percentage damage caused to the plant, PRE Application IPOHE ([6]; 1000 g/h) | percentage damage caused to the plant, POST Application SETFA (Setaria faberi (SETFA) [7]; 1000 g/h) | percentage damage caused to the plant, PRE Application SETFA (Setaria faberi (SETFA) [8]; 1000 g/h) | percentage damage caused to the plant, POST Application IPOHE ([1]; applied at 250 g/ha) | percentage damage caused to the plant, POST Application ECHCG ([2]; applied at 250 g/ha) | percentage damage caused to the plant, PRE Application AMARE ([3]; applied at 250 g/ha) | percentage damage caused to the plant, POST Application AMARE ([4]; applied at 250 g/ha) | percentage damage caused to the plant, PRE Application ECHCG ([5]; applied at 250 g/ha) | percentage damage caused to the plant, PRE Application IPOHE ([6]; applied at 250 g/ha) | percentage damage caused to the plant, PRE Application LOLPE (Lolium perenne (LOLPE) [9]) | percentage damage caused to the plant, POST Application LOLPE (Lolium perenne (LOLPE) [10]) | percentage damage caused to the plant, POST Application SETFA (Setaria faberi (SETFA) [7]; applied at 250 g/ha) | percentage damage caused to the plant, PRE Application SETFA (Setaria faberi (SETFA) [8]; applied at 250 g/ha)
1 | CCn1nnnc1NC(=O)c1nn2cnn(-c3cccc(C)c3)c2nc1=O [Compound 1.046] | 5 (5=80-100%) | 5 (5=80-100%) | 5 (5=80-100%) | 5 (5=80-100%) | 5 (5=80-100%) | 5 (5=80-100%) | 5 (5=80-100%) | 5 (5=80-100%) |  |  |  |  |  |  |  |  |  | 
2 | O=C1CCCC(=O)C1C(=O)c1nn2cnn(-c3ccccc3)c2nc1=O [Compound 4.001] |  |  |  |  |  |  |  |  | 5 (5=80-100%) | 5 (5=80-100%) | 5 (5=80-100%) | 5 (5=80-100%) | 5 (5=80-100%) | 1 (1=0-19%) | 2 (2=20-39%) | 1 (1=0-19%) | 5 (5=80-100%) | 1 (1=0-19%)
3 | O=C1CCCC(=O)C1C(=O)c1nn2cnn(-c3ccc(C(F)(F)F)cc3)c2nc1=O [Compound 4.008] | 5 (5=80-100%) | 5 (5=80-100%) | 5 (5=80-100%) | 4 (4=60-79%) | 5 (5=80-100%) | 5 (5=80-100%) | 5 (5=80-100%) | 5 (5=80-100%) |  |  |  |  |  |  |  |  |  | 
4 | O=C1CCCC(=O)C1C(=O)c1nn2cnn(-c3cccc(Cl)c3)c2nc1=O [Compound 4.009] | 5 (5=80-100%) | 5 (5=80-100%) | 5 (5=80-100%) | 5 (5=80-100%) | 5 (5=80-100%) | 5 (5=80-100%) | 5 (5=80-100%) | 5 (5=80-100%) |  |  |  |  |  |  |  |  |  | 
5 | O=C(c1nn2cnn(-c3ccc(C(F)(F)F)cc3)c2nc1=O)C1C(=O)C2CCC(C2)C1=O (centres unmarked) [Compound 5.008] | 5 (5=80-100%) | 5 (5=80-100%) | 5 (5=80-100%) | 5 (5=80-100%) | 5 (5=80-100%) | 5 (5=80-100%) | 5 (5=80-100%) | 5 (5=80-100%) |  |  |  |  |  |  |  |  |  | 
6 | Cc1cccc(-n2ncn3nc(C(=O)C4C(=O)CC(C)CC4=O)c(=O)nc23)c1 (centres unmarked) [Compound 6.001] | 5 (5=80-100%) | 5 (5=80-100%) | 5 (5=80-100%) | 5 (5=80-100%) | 5 (5=80-100%) | 5 (5=80-100%) | 5 (5=80-100%) | 4 (4=60-79%) |  |  |  |  |  |  |  |  |  | 
